# Measured values from patent US11767298B2, “Substituted benzimidazoles as inhibitors of transforming growth factor-β kinase” (Duke University, priority 2016, dated 2023).
# Entries after “also recorded” stand apart in the source; their conditions may differ. Where two headings read alike, the source gives them in different places.
# Columns and labels:
# [1] = system: K63-linked ubiquitination; assay: Western blot for K63-linked ubiquitination in Plasmodium blood stage; assay type: cell-based, P. falciparum; conditions: 0.001-100 μM, 24 hr, ring-stage blood stage parasites
# Description: P. falciparum asexual blood-stage culture. P. falciparum 3D7 isolate was maintained under standard conditions in complete culturing medium [10.44 g/L RPMI 1640 (Invitrogen), 5.94 g/L HEPES (Invitrogen), 50 mg/L hypoxanthine (Sigma), 2.02 g/L sodium bicarbonate (Sigma), 5 g/L albuMAX II (Invitrogen), 25 mg/L gentamicin (Sigma), pH 7.2]. Parasite cultures were supplied with human red blood cells (Gulf Coast Regional Blood Center) at 1% hematocrit. To obtain synchronous cultures, Plasmodium parasites (at least 50% parasites were at the early-ring stage) were pelleted at 300×g for 7 min using a low brake setting and treated with 25 volume 5% D-sorbitol (Sigma) at 37° C. for 10 min. Treated parasites were then harvested and washed with 25 volume of complete culturing medium using the aforementioned centrifugation protocol, and diluted with the complete medium to 1% hematocrit to maintain the parasite culture at 37° C. and 5% CO2.
# Protein extraction and Western blot for K63-linked ubiquitination in Plasmodium blood stage. […] Total protein lysates were heated in SDS loading buffer for 5 min at 80° C., analyzed on 4-20% Tris-Glycine polyacrylamide gels (Novex, Life Technologies) and subsequently transferred to nitrocellulose membranes. […]
# P. berghei = assay: Liver stage parasite load, luciferase-expressing P. berghei in Huh7 cells; assay type: cell-based, Plasmodium berghei ANKA; conditions: Huh7 host cells, read-out: IC50 Liver state (Huh7)
# Description: Cell-based anti-Plasmodium assays. For liver stage assays, 15,000 HepG2 or 8,000 Huh7 cells/well were added to 384-well microtiter plates using a multichannel pipette (Rainin). After 2 hours at 37° C., compounds (0-100 μM) were added to cells in duplicate or triplicate in a final concentration of 1% DMSO. DMSO was used as the negative control. Following compound incubation at 37° C. for ˜1 hr, harvested luciferase-expressing P. berghei ANKA sporozoites were added to the plates at a density of 3,000 sporozoites/well. P. berghei ANKA sporozoites were obtained from harvesting the salivary glands of infected A. stephensi mosquitoes. The plates were spun for 10 min at 1,000 rpm, and then incubated at 37° C. for ˜45 hrs. […] After ˜45 hours at 37° C., liver cell viability was assessed using CellTiter-Fluor (Promega) and then parasite load was determined using Bright-Glo (Promega). The relative fluorescence and luminescence signal intensity of each well was evaluated with an EnVision System. The luminescence signal in the presence of compounds was normalized to the negative control (DMSO). Dose-response analysis was performed with GraphPad Prism to yield the reported EC50 values.
# Specifically, their ability to inhibit P. berghei infection in two human hepatoma cell lines (HepG2 and Huh7) as well as cytotoxicity against HepG2 and Huh7 cells was determined as described above. Liver cell cytotoxicity was evaluated with two different commercially available assays, one that tests for intracellular protease activity with a fluorescence reporter and another that relies on the luminescent detection of total ATP.
# GCK = GCK (Homo sapiens, UniProt Q12851); assay: Kinase profiling (Dundee), GCK; assay type: biochemical; conditions: 10 μM
# Description: (§1) Kinase selectivity profiling. The selectivity profile of HS-206 to inhibit mammalian kinases was tested against a panel of 140 kinases at a single concentration of 10 μM. Tests were performed using a radiolabeld (^33P-ATP) filter-binding assay at the International Centre for Kinase Profiling at the University of Dundee, UK (http://www.kinase-screen.mrc.ac.uk/).
# (§2) This panel contains members of all major kinase families, including tyrosine kinases (TK), tyrosine kinase-like (TKL), sterile serine/threonine (STE), and CDK/MAPK/GSK/CLK (CMGC). […] For these kinases, IC50 values were determined (Table 1).
# MDA-MB-231 = assay: Viability and proliferation assays on breast cancer cell lines; assay type: cell-based; conditions: 48 h and 72 h
# panel of 140 kinases = assay: Kinase selectivity profiling, 33P-ATP filter-binding assay (Dundee); assay type: biochemical; conditions: of the 140 kinases, 10 μM
# Description: as §1, §2
# Sequence of GCK (Q12851 whole entry): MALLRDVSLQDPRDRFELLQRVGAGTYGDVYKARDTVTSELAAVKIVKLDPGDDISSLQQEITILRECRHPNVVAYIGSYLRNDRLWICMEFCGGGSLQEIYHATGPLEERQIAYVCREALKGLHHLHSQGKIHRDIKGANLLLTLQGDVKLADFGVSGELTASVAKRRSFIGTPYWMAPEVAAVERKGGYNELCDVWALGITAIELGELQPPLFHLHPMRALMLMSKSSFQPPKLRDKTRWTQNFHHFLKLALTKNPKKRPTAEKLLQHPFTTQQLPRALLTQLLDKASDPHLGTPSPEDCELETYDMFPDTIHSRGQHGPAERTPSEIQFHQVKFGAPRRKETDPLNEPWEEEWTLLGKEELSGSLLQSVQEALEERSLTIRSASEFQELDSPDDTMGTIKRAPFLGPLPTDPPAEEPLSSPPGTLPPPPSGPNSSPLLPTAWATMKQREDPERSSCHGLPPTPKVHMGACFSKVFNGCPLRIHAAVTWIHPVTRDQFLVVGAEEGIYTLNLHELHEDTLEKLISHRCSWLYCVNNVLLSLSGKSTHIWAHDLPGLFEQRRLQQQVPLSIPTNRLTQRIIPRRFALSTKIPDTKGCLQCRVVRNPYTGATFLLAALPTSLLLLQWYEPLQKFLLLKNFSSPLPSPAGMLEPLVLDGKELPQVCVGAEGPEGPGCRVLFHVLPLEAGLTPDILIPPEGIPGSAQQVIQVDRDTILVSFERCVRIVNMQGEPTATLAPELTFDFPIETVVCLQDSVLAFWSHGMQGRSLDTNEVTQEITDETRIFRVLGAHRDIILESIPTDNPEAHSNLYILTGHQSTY
structure (smiles),measurement,setting,value
"CCCn1c(NC(=O)c2cccc(C(N)=O)c2)nc2ccccc21 [HS-206 (1), (E)-N-(1-Propyl-1,3-dihydro-2H-benzo[d]imidazol-2-ylidene)isophthalamide]",levels of K63-linked ubiquitinated proteins,[1],dose-dependent decrease
same,IC50,"P. berghei; Plasmodium berghei, Huh-7, parasite load",~7 µM
same,IC50,P. berghei; parasite load,7.3 µM
same,inhibition at 10 µM,GCK,> 90%
same,cell proliferation,MDA-MB-231,significant reduction in cell proliferation; also recorded: inhibits cell proliferation in a dose-dependent manner
same,number of kinases with ≥80% inhibition,panel of 140 kinases,11
